Measured values reported in ChEMBL document CHEMBL1909046, “DrugMatrix in vitro pharmacology data”.

Key:
[1] = target: C-C chemokine receptor type 5 (Homo sapiens, UniProt P51681); type: cell membranes, Membrane; conditions: hek293; further: in other assays of this panel Not Active means under 50% inhibition at 10 µM
[2] = target: Mitogen-activated protein kinase 14 (Homo sapiens, UniProt Q16539); design: species or system Escherichia coli;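 further: inhibition of p38alpha enzyme activity in a biochemical kinase assay, with myelin basic protein serving as substrate; in other assays of this panel Not Active means under 50% inhibition at 10 µM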
[3] = DRUGMATRIX: Glutamate, NMDA, Agonism radioligand binding (ligand: [3H] CGP-39653); type: cell membranes, Rattus norvegicus, Wistar, Cerebral cortex, Membrane; conditions: Not Active = under 50% inhibition at 10 µM
[4] = DRUGMATRIX: Calcium Channel Type L, Phenylalkylamine radioligand binding (ligand: [3H] (-)-Desmethoxyverapamil (D-888)); type: cell membranes, Rattus norvegicus, Wistar, Brain, Membrane; conditions: Not Active = under 50% inhibition at 10 µM
[5] = target: T1, Amine oxidase [flavin-containing] A (Homo sapiens, UniProt P21397); test: DRUGMATRIX: Monoamine Oxidase MAO-A enzyme inhibition (substrate: Kynuramine); design: species or system BTI-TN-5B1-4; conditions: bti-tn-5b1-4; Not Active = under 50% inhibition at 10 µM
T1 sequence (P21397 whole entry): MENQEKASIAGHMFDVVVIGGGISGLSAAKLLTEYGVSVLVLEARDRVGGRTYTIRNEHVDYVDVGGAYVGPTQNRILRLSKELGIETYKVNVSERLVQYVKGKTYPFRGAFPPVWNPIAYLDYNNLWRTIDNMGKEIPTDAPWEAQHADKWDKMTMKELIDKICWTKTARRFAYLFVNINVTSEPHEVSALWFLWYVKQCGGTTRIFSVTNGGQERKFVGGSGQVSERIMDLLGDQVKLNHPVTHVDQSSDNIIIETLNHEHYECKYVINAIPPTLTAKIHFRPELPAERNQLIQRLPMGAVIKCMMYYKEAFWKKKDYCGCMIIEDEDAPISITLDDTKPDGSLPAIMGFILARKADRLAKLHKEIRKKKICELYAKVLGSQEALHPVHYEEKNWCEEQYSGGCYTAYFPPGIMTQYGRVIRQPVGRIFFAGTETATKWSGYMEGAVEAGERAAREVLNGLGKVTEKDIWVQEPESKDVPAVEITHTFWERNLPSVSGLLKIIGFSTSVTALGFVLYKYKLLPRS

[6] = target: Melanocortin receptor 3 (Homo sapiens, UniProt P41968); type: cell membranes, HEK293, Membrane; conditions: hek293; further: in other assays of this panel Not Active means under 50% inhibition at 10 µM
[7] = target: Cytochrome P450 2C9 (Homo sapiens, UniProt P11712); conditions: bti-tn-5b1-4; further: in other assays of this panel Not Active means under 50% inhibition at 10 µM
[8] = target: T2, Vasoactive intestinal polypeptide receptor 1 (Homo sapiens, UniProt P32241); type: cell membranes, Membrane; conditions: ht-29; further: in other assays of this panel Not Active means under 50% inhibition at 10 µM
T2 sequence (P32241 whole entry): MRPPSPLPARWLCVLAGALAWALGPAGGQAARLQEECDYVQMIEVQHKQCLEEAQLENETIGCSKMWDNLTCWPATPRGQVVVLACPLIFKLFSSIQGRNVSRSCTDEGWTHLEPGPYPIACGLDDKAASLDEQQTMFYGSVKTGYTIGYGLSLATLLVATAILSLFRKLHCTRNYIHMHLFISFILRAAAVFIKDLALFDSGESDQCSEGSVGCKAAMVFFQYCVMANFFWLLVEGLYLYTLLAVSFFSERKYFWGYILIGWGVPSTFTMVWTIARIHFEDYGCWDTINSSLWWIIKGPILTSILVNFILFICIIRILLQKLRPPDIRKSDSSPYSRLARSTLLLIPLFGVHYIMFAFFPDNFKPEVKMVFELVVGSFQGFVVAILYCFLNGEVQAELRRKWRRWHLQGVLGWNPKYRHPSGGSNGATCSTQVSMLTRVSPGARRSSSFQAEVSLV

Chain of Mitogen-activated protein kinase 14 (Q16539 whole entry): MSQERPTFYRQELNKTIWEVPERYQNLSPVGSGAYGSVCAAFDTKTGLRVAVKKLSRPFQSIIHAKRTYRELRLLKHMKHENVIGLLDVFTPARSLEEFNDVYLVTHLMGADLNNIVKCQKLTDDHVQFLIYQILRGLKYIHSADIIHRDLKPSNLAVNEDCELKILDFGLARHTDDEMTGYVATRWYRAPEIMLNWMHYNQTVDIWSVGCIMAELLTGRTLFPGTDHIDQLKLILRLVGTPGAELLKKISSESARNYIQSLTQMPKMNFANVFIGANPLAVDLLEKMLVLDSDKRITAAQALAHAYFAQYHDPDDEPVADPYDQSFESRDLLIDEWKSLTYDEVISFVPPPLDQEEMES
Chain of C-C chemokine receptor type 5 (P51681 whole entry): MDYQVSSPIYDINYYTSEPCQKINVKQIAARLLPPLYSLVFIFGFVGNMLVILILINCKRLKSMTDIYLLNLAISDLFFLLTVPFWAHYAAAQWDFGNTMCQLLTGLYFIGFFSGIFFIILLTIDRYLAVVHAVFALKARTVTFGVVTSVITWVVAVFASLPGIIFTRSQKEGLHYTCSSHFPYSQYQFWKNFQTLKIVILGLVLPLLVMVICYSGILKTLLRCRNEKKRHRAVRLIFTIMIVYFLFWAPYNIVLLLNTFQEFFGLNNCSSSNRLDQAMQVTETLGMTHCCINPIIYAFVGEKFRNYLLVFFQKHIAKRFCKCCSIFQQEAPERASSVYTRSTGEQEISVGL
Chain of Cytochrome P450 2C9 (P11712 whole entry): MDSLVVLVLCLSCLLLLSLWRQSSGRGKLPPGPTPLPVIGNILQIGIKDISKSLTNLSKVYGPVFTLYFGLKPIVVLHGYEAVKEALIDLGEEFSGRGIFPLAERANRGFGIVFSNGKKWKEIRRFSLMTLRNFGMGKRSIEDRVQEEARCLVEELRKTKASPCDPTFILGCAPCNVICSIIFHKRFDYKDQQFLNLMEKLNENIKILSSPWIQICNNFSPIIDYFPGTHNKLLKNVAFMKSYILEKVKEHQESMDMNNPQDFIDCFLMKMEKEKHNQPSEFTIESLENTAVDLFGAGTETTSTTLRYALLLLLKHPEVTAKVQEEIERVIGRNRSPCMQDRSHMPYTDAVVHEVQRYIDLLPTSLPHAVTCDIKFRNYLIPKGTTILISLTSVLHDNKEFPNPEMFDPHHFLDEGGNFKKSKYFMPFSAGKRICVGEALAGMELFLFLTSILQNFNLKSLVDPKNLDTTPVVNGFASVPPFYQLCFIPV
Chain of Melanocortin receptor 3 (P41968 whole entry): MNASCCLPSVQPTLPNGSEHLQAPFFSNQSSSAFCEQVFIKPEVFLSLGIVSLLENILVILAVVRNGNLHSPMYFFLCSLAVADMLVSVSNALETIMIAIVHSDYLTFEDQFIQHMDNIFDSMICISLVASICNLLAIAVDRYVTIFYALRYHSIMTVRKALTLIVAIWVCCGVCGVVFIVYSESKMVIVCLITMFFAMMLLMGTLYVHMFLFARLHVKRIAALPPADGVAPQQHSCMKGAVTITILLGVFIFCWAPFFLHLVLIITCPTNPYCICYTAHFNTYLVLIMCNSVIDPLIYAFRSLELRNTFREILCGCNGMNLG

| Structure (SMILES) | IC50 [1] | IC50 [2] | IC50 [3] | Ki [3] | IC50 ([4]; read-out: IC50) | Ki ([4]; read-out: Ki) | IC50 [5] | IC50 [6] | IC50 [7] | Ki [7] | IC50 [8] | IC50 [4] | Ki [4] |
| --- | --- | --- | --- | --- | --- | --- | --- | --- | --- | --- | --- | --- | --- |
| Cc1cc2c(OCC(CNC(C)(C)C)OC(=O)c3ccccc3)cccc2[nH]1 (stereo not given) [BOPINDOLOL] | Not Active | Not Active | Not Active | Not Active | 2.9 µM | 2.82 µM | Not Active | Not Active | Not Active | Not Active | Not Active | – | – |
| Brc1c(NC2=NCCN2)ccc2nccnc12 [BRIMONIDINE] | Not Active | Not Active | Not Active | Not Active | – | – | Not Active | Not Active | Not Active | Not Active | Not Active | Not Active | Not Active |
| CN(C)[C@@H]1C(O)=C(C(N)=O)C(=O)[C@@]2(O)C(O)=C3C(=O)c4c(O)ccc(Cl)c4[C@@](C)(O)[C@H]3C[C@@H]12 [CHLORTETRACYCLINE] | Not Active | Not Active | Not Active | Not Active | – | – | Not Active | Not Active | Not Active | Not Active | Not Active | Not Active | Not Active |
| CN/C(=N\CCSCc1nc[nH]c1C)NC#N [CIMETIDINE] | Not Active | Not Active | Not Active | Not Active | – | – | Not Active | Not Active | Not Active | Not Active | Not Active | Not Active | Not Active |
| COc1cc(N)c(Cl)cc1C(=O)NC1CCN(CCCOc2ccc(F)cc2)CC1OC (stereo not given) [CISAPRIDE] | Not Active | Not Active | Not Active | Not Active | 0.53 µM | 0.515 µM | Not Active | Not Active | Not Active | Not Active | Not Active | – | – |
| CCC(=O)O[C@]1(C(=O)CCl)[C@@H](C)C[C@H]2[C@@H]3CCC4=CC(=O)C=C[C@]4(C)[C@@]3(F)[C@@H](O)C[C@@]21C [CLOBETASOL PROPIONATE] | Not Active | Not Active | Not Active | Not Active | – | – | Not Active | Not Active | Not Active | Not Active | Not Active | Not Active | Not Active |
| O=C1CN=C(c2ccccc2Cl)c2cc([N+](=O)[O-])ccc2N1 [CLONAZEPAM] | Not Active | Not Active | Not Active | Not Active | – | – | Not Active | Not Active | Not Active | Not Active | Not Active | Not Active | Not Active |
| Nc1ccn([C@@H]2O[C@H](CO)[C@@H](O)[C@@H]2O)c(=O)n1 [CYTARABINE] | Not Active | Not Active | Not Active | Not Active | – | – | Not Active | Not Active | Not Active | Not Active | Not Active | Not Active | Not Active |
| C[C@@H]1C[C@H]2[C@@H]3CCC4=CC(=O)C=C[C@]4(C)[C@@]3(F)[C@@H](O)C[C@]2(C)[C@H]1C(=O)CO [DESOXIMETASONE] | Not Active | Not Active | Not Active | Not Active | – | – | Not Active | Not Active | Not Active | Not Active | Not Active | Not Active | Not Active |
| CN(C)CC[C@@H](c1ccc(Cl)cc1)c1ccccn1 [DEXCHLORPHENIRAMINE] | Not Active | Not Active | Not Active | Not Active | 3.81 µM | 3.7 µM | Not Active | Not Active | Not Active | Not Active | Not Active | – | – |
